Source: US20170218042A1, “METHODS OF ISOLATING T CELL RECEPTORS HAVING ANTIGENIC SPECIFICITY FOR A CANCER-SPECIFIC MUTATION” (The United State of America, as represented by the …, priority 2014, published 2017)

Tested on: 3737-TIL
Assay: Co-culture of 3737-TIL with TMG-RNA-transfected autologous DCs; flow cytometry for activation markers 4-1BB and OX40
Assay type: cell-based, human
Description: APCs (DCs or B cells) were harvested, washed 1× with PBS, and then resuspended in Opti-MEM (Life Technologies) at 10-30×10^6 cells/ml. IVT RNA (4 μg or 8 μg) was aliquoted to the bottom of a 2 mm gap electroporation cuvette, and 50 μl or 100 μl of APCs were added directly to the cuvette. The final RNA concentration used in electroporations was thus 80 μg/ml. Electroporations were carried out using a BTX-830 square wave electroporator. DCs were electroporated with 150 V, 10 ms, and 1 pulse, and B cells were electroporated with 150 V, 20 ms, and 1 pulse. Transfection efficiencies using these settings were routinely between 70-90% as assessed with GFP RNA (data not shown). All steps were carried out at room temperature. Following electroporation, cells were immediately transferred to polypropylene tubes containing DC- or B-cell media supplemented with the appropriate cytokines. Transfected cells were incubated overnight (12-14 h) at 37° C., 5% CO2. Cells were washed 1× with PBS prior to use in co-culture assays.
When DCs were used as APCs, approximately 3.5×10^4 to 7×10^4 DCs were used per well of a 96-well flat or round-bottom plate. When B cells were used as APCs, approximately 2×10^5 cells were used per well of a 96-well round-bottom plate. In ELISPOT assays, 1×10^3 to 1×10^4 effector T cells were used per well, and in flow cytometry assays, 1×10^5 effector T cells were used per well. T cells were typically thawed and rested in IL-2 containing 50/50 media (3000 IU/ml IL-2) for two days and then washed with PBS (3×) prior to co-culture assays. All co-cultures were performed in the absence of exogenously added cytokines. For all assays, plate-bound OKT3 (0.1 μg/ml or 1 μg/ml) was used as a positive control.
Expression of the T-cell activation markers OX40 and 4-1BB was assessed by flow cytometry at approximately t=22-26 h post-stimulation. Briefly, cells were pelleted, washed with FACS buffer (1×PBS supplemented with 1% FBS and 2 mM EDTA), and then stained with the appropriate antibodies for approximately 30 min, at 4° C. in the dark. Cells were washed at least once with FACS buffer prior to acquisition on a BD FACSCanto II flow cytometer. All data were gated on live (PI negative), single cells.
The TMG constructs were then used as templates for the generation of in vitro transcribed (IVT) RNA. Each of these IVT TMG RNAs was then individually transfected into autologous APCs (DCs) followed by a co-culture with TIL to determine whether any of the processed and presented mutated antigens were recognized by TIL. It was observed that 3737-TIL were reactive to a mutated antigen present in TMG-1, but not TMG-2 or TMG-3 (FIG. 1A). […] Tables 4A and 4B show the percentage of 3737-TIL detected by flow cytometry as having the indicated phenotype following coculture with DCs cultured with the non-specific stimulator OKT3 or DCs transfected with green fluorescent protein (GFP) RNA, or the indicated tandem mini-gene (TMG) construct encoding the various mutations identified by whole-exomic sequencing. Mock-transfected cells were treated with transfection reagent only without addition of nucleic acid. Data were gated on live CD3+ cells.
3737-TIL were co-cultured with DCs transfected with TMG-1 or TMG-1 encoding the wild-type (wt) ERBB2IP reversion, and flow cytometry was used to assess OX40 and Vβ22 expression on CD4+ T cells at 24 hours post-stimulation. Plate-bound OKT3 stimulation was used as a positive control.

[1] = 3737-TIL CD4+ T cells, 24 hours post-stimulation
[2] = percentage of 3737-TIL after co-culture with transfected DCs or OKT3, gated on live CD3+ cells

Substance: OKT3: anti-CD3 antibody, non-specific stimulator, plate-bound positive control
- Vβ22+/OX40+ [1]: 44%
- Vβ22+/OX40− [1]: 6%
- Vβ22−/OX40+ [1]: 31%
- Vβ22−/OX40− [1]: 19%
- 4-1BB+/CD4+ [2]: 32%
- 4-1BB+/CD4− [2]: 41%
- 4-1BB−/CD4+ [2]: 23%
- 4-1BB−/CD4− [2]: 4%
- OX40+/CD4+ [2]: 45%
- OX40+/CD4− [2]: 6%
- OX40−/CD4+ [2]: 11%
- OX40−/CD4− [2]: 38%
